Data as given in ChEMBL document CHEMBL1139800, “Design, synthesis and antitubercular activity of diarylmethylnaphthol derivatives” (Bioorg Med Chem Lett, 2007).
≈ marks a conversion by molar mass, not a printed value. Calls of active or inactive are those of the source. No cut-off for these calls is given here.

Columns and labels:
[1] = test system: Mycobacterium tuberculosis; experiment: Antitubercular activity against Mycobacterium tuberculosis H37Rv by MABA assay; type: functional
[2] = test system: Mycobacterium tuberculosis; experiment: Antitubercular activity against Mycobacterium tuberculosis H37Rv by Agar dilution method; type: functional
Vero = experiment: Cytotoxicity against Vero cells after 3 days; type: cell-based; details: chlorocebus sabaeus, 72 h
[3] = test system: Mycobacterium tuberculosis; experiment: Antitubercular activity against Mycobacterium tuberculosis H37Rv at 12.5 ug/mL by MABA assay; type: functional, organism-based

| Structure (SMILES) | MIC [1] | MIC [2] | Activity (Vero) | Activity [3] |
| --- | --- | --- | --- | --- |
| CCN(CC)CCOc1ccc2ccccc2c1C(c1ccccc1)c1ccc(F)cc1 (stereo unspecified) | 6.25 µg/mL (≈ 14.6 µM) | 3.12 µg/mL (≈ 7.3 µM) | Toxic |  |
| CCN(CC)CCOc1ccc(C(c2ccccc2)c2ccc(F)cc2)c2ccccc12 (stereo unspecified) |  | > 12.5 µg/mL |  | inactive |
| Clc1ccc(C(c2ccccc2)c2ccc(OCCN3CCCC3)c3ccccc23)cc1 (stereo unspecified) |  | 12.5 µg/mL (≈ 28.3 µM) |  | inactive |
| c1ccc(C(c2ccccc2)c2ccc(OCCN3CCCC3)c3ccccc23)cc1 | 6.25 µg/mL (≈ 15.3 µM) | 12.5 µg/mL (≈ 30.7 µM) |  |  |
| c1ccc(C(c2ccccc2)c2ccc(OCCN3CCCCC3)c3ccccc23)cc1 | 12.5 µg/mL (≈ 29.7 µM) | > 12.5 µg/mL |  |  |
| CN(C)CCOc1ccc2ccccc2c1C(c1ccccc1)c1ccc(F)cc1 (stereo unspecified) | 3.12 µg/mL (≈ 7.81 µM) | 6.25 µg/mL (≈ 15.6 µM) |  |  |
| c1ccc(C(c2ccccc2)c2c(OCCN3CCCC3)ccc3ccccc23)cc1 | 6.25 µg/mL (≈ 15.3 µM) | 3.12 µg/mL (≈ 7.66 µM) | Toxic |  |
| CN(C)CCOc1ccc2ccccc2c1C(c1ccccc1)c1ccccc1 | 6.25 µg/mL (≈ 16.4 µM) | 3.12 µg/mL (≈ 8.18 µM) | Toxic |  |
| Clc1ccc(C(c2ccccc2)c2ccc(OCCN3CCCCC3)c3ccccc23)cc1 (stereo unspecified) |  | 12.5 µg/mL (≈ 27.4 µM) |  | inactive |
| Clc1ccc(C(c2ccccc2)c2c(OCCN3CCCC3)ccc3ccccc23)cc1 (stereo unspecified) | 3.12 µg/mL (≈ 7.06 µM) | 6.25 µg/mL (≈ 14.1 µM) |  |  |
| CO[C@H]1/C=C/O[C@@]2(C)Oc3c(C)c(O)c4c(O)c(c(/C=N/N5CCN(C)CC5)c(O)c4c3C2=O)NC(=O)/C(C)=C\C=C\[C@H](C)[C@H](O)[C@@H](C)[C@@H](O)[C@@H](C)[C@H](OC(C)=O)[C@@H]1C [RIFAMPIN] | 0.2 µg/mL (≈ 0.243 µM) | 0.2 µg/mL (≈ 0.243 µM) |  |  |
| CN(C)CCOc1ccc(C(c2ccccc2)c2ccc(F)cc2)c2ccccc12 (stereo unspecified) |  | > 12.5 µg/mL |  | inactive |
| Fc1ccc(C(c2ccccc2)c2c(OCCN3CCCCC3)ccc3ccccc23)cc1 (stereo unspecified) | 6.25 µg/mL (≈ 14.2 µM) | 3.12 µg/mL (≈ 7.1 µM) | Toxic |  |
| Clc1ccc(C(c2ccccc2)c2c(OCCN3CCCCC3)ccc3ccccc23)cc1 (stereo unspecified) | 3.12 µg/mL (≈ 6.84 µM) | 6.25 µg/mL (≈ 13.7 µM) |  |  |
| CN(C)CCOc1ccc2ccccc2c1C(c1ccccc1)c1ccc(Cl)cc1 (stereo unspecified) | 3.12 µg/mL (≈ 7.5 µM) | 6.25 µg/mL (≈ 15 µM) |  |  |
| Fc1ccc(C(c2ccccc2)c2c(OCCN3CCCCCC3)ccc3ccccc23)cc1 (stereo unspecified) | 6.25 µg/mL (≈ 13.8 µM) | 12.5 µg/mL (≈ 27.6 µM) |  |  |

| Structure (SMILES) | MIC [1] | MIC [2] | Activity (Vero) | Activity [3] |
| --- | --- | --- | --- | --- |
| Fc1ccc(C(c2ccccc2)c2ccc(OCCN3CCCCC3)c3ccccc23)cc1 (stereo unspecified) | 12.5 µg/mL (≈ 28.4 µM) | 12.5 µg/mL (≈ 28.4 µM) |  |  |
| CCN(CC)CCOc1ccc2ccccc2c1C(c1ccccc1)c1ccc(Cl)cc1 (stereo unspecified) | 3.12 µg/mL (≈ 7.03 µM) | 6.25 µg/mL (≈ 14.1 µM) |  |  |
| c1ccc(C(c2ccccc2)c2ccc(OCCN3CCCCCC3)c3ccccc23)cc1 | 12.5 µg/mL (≈ 28.7 µM) | 12.5 µg/mL (≈ 28.7 µM) |  |  |
| CN(C)CCOc1ccc(C(c2ccccc2)c2ccc(Cl)cc2)c2ccccc12 (stereo unspecified) |  | > 12.5 µg/mL |  | inactive |
| CCN(CC)CCOc1ccc(C(c2ccccc2)c2ccc(Cl)cc2)c2ccccc12 (stereo unspecified) | 12.5 µg/mL (≈ 28.2 µM) | 12.5 µg/mL (≈ 28.2 µM) |  |  |
| CN(C)CCOc1ccc(C(c2ccccc2)c2ccccc2)c2ccccc12 | 12.5 µg/mL (≈ 32.8 µM) | 6.25 µg/mL (≈ 16.4 µM) |  |  |
| CCN(CC)CCOc1ccc(C(c2ccccc2)c2ccccc2)c2ccccc12 | 6.25 µg/mL (≈ 15.3 µM) | 12.5 µg/mL (≈ 30.5 µM) |  |  |
| Fc1ccc(C(c2ccccc2)c2ccc(OCCN3CCCC3)c3ccccc23)cc1 (stereo unspecified) | 6.25 µg/mL (≈ 14.7 µM) | 12.5 µg/mL (≈ 29.4 µM) |  |  |
| c1ccc(C(c2ccccc2)c2c(OCCN3CCCCCC3)ccc3ccccc23)cc1 | 6.25 µg/mL (≈ 14.3 µM) | 3.12 µg/mL (≈ 7.16 µM) | Toxic |  |
| Clc1ccc(C(c2ccccc2)c2ccc(OCCN3CCCCCC3)c3ccccc23)cc1 (stereo unspecified) |  | > 12.5 µg/mL |  | inactive |
| NNC(=O)c1ccncc1 [ISONIAZID] | 0.025 µg/mL (≈ 0.182 µM) | 0.025 µg/mL (≈ 0.182 µM) |  |  |
| Fc1ccc(C(c2ccccc2)c2c(OCCN3CCCC3)ccc3ccccc23)cc1 (stereo unspecified) | 3.12 µg/mL (≈ 7.33 µM) | 6.25 µg/mL (≈ 14.7 µM) |  |  |
| c1ccc(C(c2ccccc2)c2c(OCCN3CCCCC3)ccc3ccccc23)cc1 | 6.25 µg/mL (≈ 14.8 µM) | 3.12 µg/mL (≈ 7.4 µM) | Toxic |  |
| CCN(CC)CCOc1ccc2ccccc2c1C(c1ccccc1)c1ccccc1 | 6.25 µg/mL (≈ 15.3 µM) | 3.12 µg/mL (≈ 7.62 µM) | Toxic |  |
| Fc1ccc(C(c2ccccc2)c2ccc(OCCN3CCCCCC3)c3ccccc23)cc1 (stereo unspecified) | 12.5 µg/mL (≈ 27.6 µM) | > 12.5 µg/mL |  |  |
| Clc1ccc(C(c2ccccc2)c2c(OCCN3CCCCCC3)ccc3ccccc23)cc1 (stereo unspecified) | 3.12 µg/mL (≈ 6.64 µM) | 6.25 µg/mL (≈ 13.3 µM) |  |  |
